In paper PMC8655237 (Journal of Advanced Research, 2021):

Assays:
[1] = tested on: A431; test: NRU antiproliferative assay; format: cell-based; conditions: Homo sapiens, A-431, 24 h, read-out: IC50 (NRU)
[2] = target: tubulin protein (Sus scrofa, UniProt P02550+P02554); test: Tubulin polymerization assay; format: biochemical; conditions: 100 μM
[3] = tested on: HYAL mRNA; test: Real-time qPCR expression analysis; format: cell-based, human; conditions: GAPDH internal control
[4] = tested on: hyaluronidase (HYAL); test: Hyaluronidase assay, cell-free; format: biochemical; conditions: cell-free system
[5] = tested on: LOX-5 mRNA; test: Real-time qPCR expression analysis; format: cell-based, human; conditions: GAPDH internal control
[6] = tested on: human erythrocytes; test: Ex vivo osmotic fragility test; conditions: 100 μM
[7] = tested on: A431 cells; test: DCFH-DA ROS assay; format: cell-based, human; conditions: A431, highest concentration, 24 h, spectrofluorometer
[8] = target: T1, Cathepsin D (CATD) (Homo sapiens, UniProt P07339); test: Cathepsin D assay, cell-free
T1 sequence (P07339 65-412): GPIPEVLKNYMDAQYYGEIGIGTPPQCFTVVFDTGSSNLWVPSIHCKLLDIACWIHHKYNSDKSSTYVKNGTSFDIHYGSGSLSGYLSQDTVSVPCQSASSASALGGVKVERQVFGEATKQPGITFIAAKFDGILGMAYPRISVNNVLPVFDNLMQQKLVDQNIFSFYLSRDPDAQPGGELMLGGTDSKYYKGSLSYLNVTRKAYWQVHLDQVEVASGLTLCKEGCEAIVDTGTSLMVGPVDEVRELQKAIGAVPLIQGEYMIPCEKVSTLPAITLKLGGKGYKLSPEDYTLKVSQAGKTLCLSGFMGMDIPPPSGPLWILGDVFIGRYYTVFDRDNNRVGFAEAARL

[9] = tested on: PC-3; test: NRU antiproliferative assay; format: cell-based; conditions: Homo sapiens, PC-3, 24 h, read-out: IC50 (NRU)
[10] = target: T2, COX-2 (Homo sapiens, UniProt P35354); test: cell-based; conditions: IC50 COX-2, cell based
T2 sequence (P35354 18-604): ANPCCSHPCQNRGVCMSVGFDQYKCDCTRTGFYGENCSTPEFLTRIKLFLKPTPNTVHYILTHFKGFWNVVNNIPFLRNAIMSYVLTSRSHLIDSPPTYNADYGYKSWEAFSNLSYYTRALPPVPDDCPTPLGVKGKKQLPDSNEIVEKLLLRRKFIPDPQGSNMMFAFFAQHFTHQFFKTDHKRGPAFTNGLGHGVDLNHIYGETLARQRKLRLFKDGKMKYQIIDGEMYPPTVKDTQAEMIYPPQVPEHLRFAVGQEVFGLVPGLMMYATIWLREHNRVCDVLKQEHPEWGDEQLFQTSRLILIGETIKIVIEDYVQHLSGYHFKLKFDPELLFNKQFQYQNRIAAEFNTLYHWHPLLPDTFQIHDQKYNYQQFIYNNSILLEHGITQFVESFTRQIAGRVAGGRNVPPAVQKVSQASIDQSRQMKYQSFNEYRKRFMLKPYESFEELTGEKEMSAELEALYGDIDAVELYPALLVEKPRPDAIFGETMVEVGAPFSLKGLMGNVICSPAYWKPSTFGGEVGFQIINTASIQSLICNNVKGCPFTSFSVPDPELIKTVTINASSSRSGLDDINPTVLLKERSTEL

[11] = tested on: PC-3; test: SRB antiproliferative assay; format: cell-based; conditions: Homo sapiens, PC-3, 24 h, read-out: IC50 (SRB)
[12] = tested on: A431; test: Cell cycle analysis by flow cytometry; format: cell-based, human; conditions: A431, 24 h
[13] = ref https://chem.nlm.nih.gov/chemidplus/rn/3623–51-6; cited from earlier work
[14] = target: T2, COX-2; test: COX-2 assay, cell-free; format: biochemical
[15] = tested on: COX-2 mRNA; test: Real-time qPCR expression analysis; format: cell-based, human; conditions: GAPDH internal control
[16] = tested on: DHFR mRNA; test: Real-time qPCR expression analysis; format: cell-based, human; conditions: A549, with respect to control, GAPDH internal control
[17] = tested on: FaDu; test: Cell cycle analysis by flow cytometry; format: cell-based, human; conditions: 24 h
[18] = tested on: A431; test: MTT antiproliferative assay; format: cell-based; conditions: Homo sapiens, A-431, 24 h, read-out: IC50 (MTT)
[19] = target: T1, Cathepsin D (CATD); test: Cathepsin D assay, cell-based; conditions: IC50 CAT D
[20] = tested on: PI3K; test: PI3K quantification by ELISA in A431 cells; format: cell-based, human; conditions: A431, 100 µM, 24 h
[21] = tested on: PC-3; test: MTT antiproliferative assay; format: cell-based; conditions: Homo sapiens, PC-3, 24 h, read-out: IC50 (MTT)
[22] = tested on: HDAC-6; test: HDAC-6 quantification by ELISA in A431 cells; format: cell-based, human; conditions: A431, 100 µM, 24 h
[23] = tested on: ODC mRNA; test: Real-time qPCR expression analysis; format: cell-based, human; conditions: GAPDH internal control
[24] = tested on: mTOR; test: mTOR quantification by ELISA in A431 cells; format: cell-based, human; conditions: A431, 100 µM, 24 h
[25] = target: T3, Ornithine decarboxylase (ODC) (Homo sapiens, UniProt P11926); test: ODC assay, cell-based; conditions: for IC50: IC50 ODC, cell based
T3 sequence (P11926 1-461): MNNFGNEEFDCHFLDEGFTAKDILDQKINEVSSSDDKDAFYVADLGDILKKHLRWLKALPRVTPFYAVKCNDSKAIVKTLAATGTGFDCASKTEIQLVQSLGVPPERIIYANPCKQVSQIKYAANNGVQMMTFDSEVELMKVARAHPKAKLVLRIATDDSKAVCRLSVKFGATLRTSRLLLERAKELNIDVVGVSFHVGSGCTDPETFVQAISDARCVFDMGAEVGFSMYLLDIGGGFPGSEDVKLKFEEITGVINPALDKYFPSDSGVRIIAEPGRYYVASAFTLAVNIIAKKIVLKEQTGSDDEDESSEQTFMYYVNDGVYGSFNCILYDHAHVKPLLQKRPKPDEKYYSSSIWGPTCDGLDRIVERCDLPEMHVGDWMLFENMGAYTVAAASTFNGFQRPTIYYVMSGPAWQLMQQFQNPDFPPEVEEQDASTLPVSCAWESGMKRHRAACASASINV

[26] = MDA-MB-231, with respect to control

tubulin protein, sequence (P02550 whole entry): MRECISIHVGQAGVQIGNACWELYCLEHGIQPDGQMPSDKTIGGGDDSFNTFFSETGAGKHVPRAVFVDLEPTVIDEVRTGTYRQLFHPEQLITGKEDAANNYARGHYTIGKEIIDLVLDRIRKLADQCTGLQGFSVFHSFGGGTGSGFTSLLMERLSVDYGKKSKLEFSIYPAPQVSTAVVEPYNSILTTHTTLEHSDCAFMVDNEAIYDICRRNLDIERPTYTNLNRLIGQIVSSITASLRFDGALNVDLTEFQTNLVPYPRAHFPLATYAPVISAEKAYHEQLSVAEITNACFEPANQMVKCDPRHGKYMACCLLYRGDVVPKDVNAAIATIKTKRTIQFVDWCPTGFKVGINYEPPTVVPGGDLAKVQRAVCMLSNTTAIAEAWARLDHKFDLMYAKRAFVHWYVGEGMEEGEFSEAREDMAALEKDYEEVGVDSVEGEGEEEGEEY
tubulin protein, sequence (P02554 whole entry): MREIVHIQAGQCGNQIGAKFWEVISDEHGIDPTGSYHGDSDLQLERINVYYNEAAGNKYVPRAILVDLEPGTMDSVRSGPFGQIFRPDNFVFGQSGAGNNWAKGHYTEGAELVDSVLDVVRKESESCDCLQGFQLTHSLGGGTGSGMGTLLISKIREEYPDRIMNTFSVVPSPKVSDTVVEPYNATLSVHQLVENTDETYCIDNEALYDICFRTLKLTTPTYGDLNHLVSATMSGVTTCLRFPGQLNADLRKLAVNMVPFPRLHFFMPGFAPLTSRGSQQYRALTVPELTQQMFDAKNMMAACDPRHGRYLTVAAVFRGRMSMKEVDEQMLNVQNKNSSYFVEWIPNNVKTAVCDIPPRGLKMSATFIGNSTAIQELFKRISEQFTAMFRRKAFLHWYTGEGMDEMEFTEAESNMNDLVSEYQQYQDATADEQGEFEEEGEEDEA

CC(C)[C@@H]1CC[C@@H](C)C[C@@H]1O [neomenthol, (+)-Neomenthol]
IC50 [1]: 18.5 ± 3.66 µM | effect on tubulin polymerization [2]: inhibit the polymerization of α and β tubulin | HYAL mRNA expression level ([3]; A431, with respect to control): 1.52 fold change | HYAL mRNA expression level ([3]; FaDu, with respect to control): 1.06 fold change | HYAL mRNA expression level ([3]; PC-3, with respect to control): 1.37 fold change | inhibition of hyaluronidase enzyme activity [4]: 24.9 ± 4.31% | LOX-5 mRNA expression level ([5]; A431, with respect to control): 1.25 fold change | LOX-5 mRNA expression level ([5]; FaDu, with respect to control): 1.26 fold change | LOX-5 mRNA expression level ([5]; K562, with respect to control): 1.10 fold change | toxicity to erythrocytes (osmotic fragility) [6]: non-toxic to erythrocytes | percent increase in the ROS level [7]: 20.45 ± 0.35% | IC50 [8]: 30.4 ± 6.44 µM | IC50 [9]: 84.6 ± 1.81 µM | IC50 ([10]; A431): 39.1 ± 6.39 µM | IC50 ([10]; FaDu): 87.2 ± 5.24 µM | IC50 ([10]; PC-3): 62.2 ± 10.7 µM | IC50 [11]: 16.4 ± 3.87 µM | cell cycle phase arrested [12]: G2/M phase | LD50 [13]: 4000 mg/kg | IC50 [14]: 81.01 ± 0.59 µM | COX-2 mRNA expression level ([15]; A431, with respect to control): 1.34 fold change | COX-2 mRNA expression level ([15]; A549, with respect to control): 1.09 fold change | COX-2 mRNA expression level ([15]; FaDu, with respect to control): 1.38 fold change | COX-2 mRNA expression level [15, 26]: 1.16 fold change | COX-2 mRNA expression level ([15]; PC-3, with respect to control): 1.19 fold change | DHFR mRNA expression level [16]: 1.17 fold change | cell cycle phase arrested [17]: G2/M phase | IC50 [18]: 17.3 ± 6.49 µM | IC50 ([19]; A549): 62 ± 2.08 µM | IC50 ([19]; FaDu): 74.62 ± 0.21 µM | IC50 ([19]; K562): 57.5 ± 14 µM | PI3K level (ng/mg of protein) [20]: 0.006 ± 0.00021 ng/mg | IC50 [21]: 20.1 ± 0.82 µM | HDAC-6 level (ng/mg of protein) [22]: 0.104 ± 0.001 ng/mg | ODC mRNA expression level ([23]; A431, with respect to control): 1.15 fold change | ODC mRNA expression level ([23]; A549, with respect to control): 1.18 fold change | ODC mRNA expression level ([23]; FaDu, with respect to control): 1.08 fold change | ODC mRNA expression level [23, 26]: 1.05 fold change | ODC mRNA expression level ([23]; PC-3, with respect to control): 1.22 fold change | mTOR level (ng/mg of protein) [24]: 0.336 ± 0.108 ng/mg | percent inhibition of ODC ([25]; A549, PC-3, A431, and FaDu cell lines): below 50% | IC50 ([25]; K562): 29.6 ± 2.54 µM | IC50 ([25]; MDA-MB-231): 57.2 ± 2.84 µM
